Reference: patent US7910579B2, “Benzoxazole derivatives” (Tohoku University, priority 2006, dated 2011)

How the values were obtained:
[1] = system: histidine-requiring Salmonella typhimurium TA100 and TA98 strains; assay: Mutagenicity Test (reverse mutation test); assay type: cell-based; conditions: for Relative Activity in the presence of S9Mix / Relative Activity in the absence of S9Mix: reverse mutation test; as to Relative Activity in the presence of S9Mix: key: minus: The number of colonies after reverse mutation did not increase at least two times that of the negative control
Outline: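 Preincubation reverse-mutation test in S. typhimurium TA100 and TA98, with and without S9mix, 20 min at 37° C, then 48 h at 37° C on minimal glucose agar. Six doses (common ratio 2) in DMSO, top dose 5000 μg/plate or growth-inhibiting dose. Revertant colonies counted; positive at ≥2-fold over DMSO control with dose dependency or reproducibility.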

Acute Toxicity Test = assay type: in vivo; conditions: Crj:CD1 male mice, tail vein, observed for 7 days
Procedure: The compounds of the invention were tested for their acute toxicity through intravenous administration thereof to mice. Four Crj:CD1 male mice formed one test group, and some test groups of those mice were used (the mean body weight of the mice of each group was from 31 to 32 g). A test compound was dissolved in a mixture of 1 N HCl, polyethylene glycol-400 and distilled water, or dissolved in DMSO, and then diluted with distilled water. This was administered to each mouse via its tail vein.

[2] = target: T1, amyloid β protein in the brain section of an Alzheimer disease patient (Homo sapiens, UniProt P05067); assay: Staining test on a brain section of an Alzheimer disease patient: amyloid β protein; assay type: binding; conditions: 100 μM solution in 50% ethanol, 10 minutes, paraffin brain section
T1 construct: from tissue; host or cells: paraffin-embedded temporal lobe and hippocampus of Alzheimer disease patients
Outline: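 Deparaffinized 6 or 8 μm temporal lobe/hippocampus sections from Alzheimer and normal senile brains, autofluorescence quenched with KMnO4 then K2S2O5/oxalic acid, stained 10 min with 100 μM compound in 50% ethanol and imaged by fluorescence microscopy. Amyloid β immunostaining with 6F/3D antibody and ABC/DAB detection used for comparison.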

[3] = irrespective of the absence or presence of S9mix

T1 sequence (P05067 672-713 limits assumed): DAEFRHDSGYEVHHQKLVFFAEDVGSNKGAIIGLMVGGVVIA

CNc1ncc(/C=C/c2nc3ccc(OC(CO)CF)cc3o2)s1 (stereo not shown) [THK-761, (E)-6-[(1-fluoromethyl-2-hydroxy)ethoxy]-2-[2-[2-methylaminothiazol-5-yl]ethenyl]-benzoxazole]
Relative activity (mutagenicity) ([1]; in the presence of S9mix): weak | Relative Activity in the presence of S9Mix [1]: minus | Relative Activity in the absence of S9Mix [1]: 11995 | Maximum Permissible Dose (mg/kg, intravenous administration) (Acute Toxicity Test): ≧10 mg/kg | Binding to (staining of) amyloid β protein in the brain section of an Alzheimer disease patient [2]: white space arrow indicates amyloid β protein

CN(C)c1ncc(/C=C/c2nc3ccc(OC(CO)CF)cc3o2)s1 (stereo not shown) [THK-763, (E)-6-[(1-fluoromethyl-2-hydroxy)ethoxy]-2-[2-[2-dimethylamino-thiazol-5-yl]ethenyl]benzoxazole]
Relative activity (mutagenicity) ([1]; in the presence of S9mix): weak | Relative Activity in the presence of S9Mix [1]: minus | Relative Activity in the absence of S9Mix [1]: 3058 | Maximum Permissible Dose (mg/kg, intravenous administration) (Acute Toxicity Test): ≧10 mg/kg | Binding to (staining of) amyloid β protein in the brain section of an Alzheimer disease patient [2]: white space arrow indicates amyloid β protein

OCC(CF)Oc1ccc2nc(/C=C/c3cnc(N4CCCC4)s3)oc2c1 (stereo not shown) [THK-752, (E)-6-[(1-fluoromethyl-2-hydroxy)ethoxy]-2-[2-[2-(pyrrolidin-1-yl)-thiazol-5-yl]ethenyl]benzoxazole]
Relative activity (mutagenicity) [1, 3]: minus | Relative Activity in the presence of S9Mix [1]: minus | Relative Activity in the absence of S9Mix [1]: minus | Maximum Permissible Dose (mg/kg, intravenous administration) (Acute Toxicity Test): ≧10 mg/kg | Binding to (staining of) amyloid β protein in the brain section of an Alzheimer disease patient [2]: white space arrow indicates amyloid β protein

FCCOc1ccc2nc(/C=C/c3cnc(N4CCOCC4)s3)oc2c1 [THK-525, 6-(2-fluoro-ethoxy)-2-[2-(2-morpholin-4-yl-thiazol-5-yl)-vinyl]-benzoxazole]
Relative activity (mutagenicity) [1, 3]: minus | Relative Activity in the presence of S9Mix [1]: minus | Relative Activity in the absence of S9Mix [1]: minus | Maximum Permissible Dose (mg/kg, intravenous administration) (Acute Toxicity Test): ≧10 mg/kg | Binding to (staining of) amyloid β protein in the brain section of an Alzheimer disease patient [2]: bound to the amyloid β protein

OCC(CF)Oc1ccc2nc(/C=C/c3cnc(N4CCOCC4)s3)oc2c1 (stereo not shown) [THK-702, (E)-2-[2-(2-morpholinothiazol-5-yl)ethenyl]-6-[(1-fluoromethyl-2-hydroxy)ethoxy]-benzoxazole]
Relative activity (mutagenicity) [1, 3]: minus | Relative Activity in the presence of S9Mix [1]: minus | Relative Activity in the absence of S9Mix [1]: minus | Maximum Permissible Dose (mg/kg, intravenous administration) (Acute Toxicity Test): ≧10 mg/kg | Binding to (staining of) amyloid β protein in the brain section of an Alzheimer disease patient [2]: white space arrow indicates amyloid β protein
